The results in this text go back to patent US20050288347A1, “Certain triazole-based compounds, compositions, and uses thereof” (priority 2004, published 2005).

“Also recorded” adds a separate entry of the source.

The target in the first assay is protein kinase. The experiment in a line: HTS ATP-utilizing enzyme assay, off-chip mobility-shift format (Caliper HTS 250). The format is biochemical, human. Particulars: kinase(s) for which the compound exhibits protein kinase inhibitory activity; test compound 10 μM; active = greater than three-sigma from the mean activity of inactive compounds. The method in brief:
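Kinase reactions ran 2.5 h at 20 to 22 °C with test compound at 10 μM, in a HEPES pH 7.5 master buffer containing Triton X-100 and BSA. Peptide substrate and phosphorylated product separated by mobility shift; inhibition normalized to DMSO (0%) and EDTA (100%) controls, with three-sigma thresholds for hits.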
`N#CCSc1nnc(-c2ccc(O)cc2)n1Cc1ccccc1` [2-(4-benzyl-5-(4-hydroxyphenyl)-4H-1,2,4-triazol-3-ylthio)acetonitrile]: the Kinase entry is reported as “GSK3-β; also recorded: GSK3-α”.

As for `COc1ccccc1-n1c(SCC#N)nnc1-c1ccccc1O`, the Kinase entry is listed as “AURORA-A”.

For `COc1ccc(-c2nnc(SCC(=O)Nc3ccccc3)n2-c2ccccc2)cc1`, the Kinase entry was “PRAK and CHEK2”.

For `Cc1ccc(S(=O)(=O)Nc2ccc(-c3nnc(SCC(=O)N4CCCCC4)n3C)cc2)cc1`, the Kinase entry was “AKT1”.

As for `CCn1c(SCC#N)nnc1-c1ccc(S(=O)(=O)N2CCOCC2)cc1`, the Kinase entry is listed as “AURORA-A”.

Turning to `COc1ccc(-n2c(SCC(N)=O)nnc2-c2ccc(S(=O)(=O)N3CCCC3)cc2)cc1`, the Kinase entry is on record as “MAPKAPK-2”.

Turning to `Cn1c(SCC(=O)Nc2nc3ccccc3s2)nnc1-c1ccco1`, the Kinase result is “GSK3-α”.

With `O=C(CSc1nnc(-c2ccc(O)cc2)n1-c1cccc(Cl)c1)NCc1ccccc1`, the Kinase result was “GSK3-α”.

With `CCN(CC)S(=O)(=O)c1ccc(-c2nnc(SCC(=O)N3C(C)CCCC3C)n2CC)cc1` (stereo not drawn), the Kinase entry was “PDGFRR-α and FYN”.

For the molecule `CC(=O)c1ccc(NC(=O)CSc2nnc(C)n2-c2ccccc2)cc1`, the Kinase result is listed as “AKT1”.

On to `Cc1ccc(NCc2nnc(SCC(=O)Nc3ccc(C)cc3Br)n2-c2ccccc2)cc1`, for which the Kinase result is on record as “AURORA-A”.

On to `CC(Sc1nnc(CNc2ccc(Cl)cc2)n1Cc1ccccc1)C(=O)O` (stereo not drawn), for which the Kinase result is “DAPK1”.

With `Cn1c(SCC(=O)OC2CCCCC2)nnc1-c1ccc([N+](=O)[O-])cc1` [cyclohexyl 2-(4-methyl-5-(4-nitrophenyl)-4H-1,2,4-triazol-3-ylthio)acetate], the Kinase result is “PDGFRR-α and FYN and FLT-3”.

On to `COc1ccc(-n2c(SCC#N)nnc2-c2ccc(NS(=O)(=O)c3ccc(C)cc3)cc2)cc1`, for which the Kinase entry is “CDK2-cyclinA and CDK1 and CDK2-cyclinE”.

In the case of `COc1cccc(NC(=O)CSc2nnc(COc3cccc(C)c3)n2C)c1`, the Kinase entry was “GSK3-α; also recorded: CDK2-cyclinE”.

With `N#CCSc1nnc(-c2ccc(OC(F)(F)F)cc2)[nH]1` [2-(5-(4-(trifluoromethoxy)phenyl)-4H-1,2,4-triazol-3-ylthio)acetonitrile], the Kinase entry is listed as “DYRK2; also recorded: FLT-3; also recorded: AURORA-A”.

For `COc1ccc2nc(NC(=O)CSc3nnc(-c4ccc(O)cc4)n3CC3CCCO3)sc2c1` (stereo not drawn), the Kinase entry is recorded as “GSK3-β; also recorded: PDGFRR-α; also recorded: GSK3-α”.

Regarding `COc1ccc(-n2c(S)nnc2-c2ccccc2OC)cc1` [5-(2-methoxyphenyl)-4-(4-methoxyphenyl)-4H-1,2,4-triazole-3-thiol], the Kinase result was “CDK2-cyclinA and CDK2-cyclinE and CDK5”.

`CCOc1ccc(Nc2nnc(SCC(=O)c3cc(C(C)(C)C)c(O)c(C(C)(C)C)c3)n2-c2ccc(OCC)cc2)cc1`: the Kinase entry is recorded as “FYN”.

For `Cc1cccc(-c2nnc(S)n2Cc2ccccc2)c1` [4-benzyl-5-m-tolyl-4H-1,2,4-triazole-3-thiol], the Kinase entry is on record as “GSK3-α”.

Turning to `CCOc1ccc(NCc2nnc(SCC(=O)N3CCN(C)CC3)n2-c2ccc(C)cc2)cc1`, the Kinase entry is “FYN and AURORA-A”.

As to `CCOC(=O)CSc1nnc(-c2ccccc2O)n1-c1ccccc1OC`, the Kinase result is “AURORA-A”.

Consider `C=CCn1c(S)nnc1COc1ccc(Cl)cc1` [4-allyl-5-((4-chlorophenoxy)methyl)-4H-1,2,4-triazole-3-thiol], for which the Kinase result is reported as “GSK3-α”.

Turning to `NC(=O)CSc1nnc(-c2ccc(O)cc2)n1-c1cccc(Cl)c1`, the Kinase entry is on record as “GSK3-β; also recorded: GSK3-α”.

Consider `COc1ccc(-n2c(SCC(=O)O)nnc2-c2ccc(NS(=O)(=O)c3ccc(C)cc3)cc2)cc1`, for which the Kinase result is “CDK2-cyclinA and CDK2-cyclinE and CDK1”.

Still in this assay, the particulars now being: test compound 10 μM; active = activity greater than three-sigma from the mean of the predominately inactive population for that enzyme.
In the case of `Cc1cc(OCc2nnc(SCCN3CCOCC3)n2Cc2ccccc2)ccc1Cl`, the “protein kinase against which the compound exhibits inhibitory activity (Table 3)” value is “AURORA-A”.

With `CC(C)(C)c1nnc(SCc2ccncc2)[nH]1` [4-((5-tert-butyl-4H-1,2,4-triazol-3-ylthio)methyl)pyridine], the “protein kinase against which the compound exhibits inhibitory activity (Table 3)” value is listed as “GSK3-α”.

Take `Clc1ccc(OCc2nnc(SCc3cccnc3)[nH]2)cc1` [3-((5-((4-chlorophenoxy)methyl)-4H-1,2,4-triazol-3-ylthio)methyl)pyridine]: the “protein kinase against which the compound exhibits inhibitory activity (Table 3)” value is given as “FLT-3”.

Regarding `COc1ccc(C(=O)NNC(=O)CSc2nnc(C)n2CCc2ccccc2)cc1`, the “protein kinase against which the compound exhibits inhibitory activity (Table 3)” value is given as “DGFRR-α”.

As to `C=CCSc1nnc(Cn2cnc3ccccc32)n1C`, the “protein kinase against which the compound exhibits inhibitory activity (Table 3)” value was “HCK”.

In the case of `COc1ccccc1-n1c(SCCN)nnc1-c1cccc(Cl)c1`, the “protein kinase against which the compound exhibits inhibitory activity (Table 3)” value is “PIM-1-KINASE”.

`COCCNC(=O)CSc1nnc(-c2ccccc2O)n1-c1ccccc1OC`: the “protein kinase against which the compound exhibits inhibitory activity (Table 3)” value is “KIT”.

`CCn1c(CNc2ccc(OC)cc2)nnc1SCc1c(F)cccc1Cl`: the “protein kinase against which the compound exhibits inhibitory activity (Table 3)” value was “PDGFRR-α and FYN and FLT-3”.

`CCn1c(CNc2ccc(C)cc2)nnc1SCc1ccc(Cl)c(Cl)c1`: the “protein kinase against which the compound exhibits inhibitory activity (Table 3)” value was “AURORA-A; also recorded: CDK2-cyclinE”.

Consider `COc1cc2c(cc1NC(=O)CSc1nncn1C)oc1ccccc12`, for which the “protein kinase against which the compound exhibits inhibitory activity (Table 3)” value is “CHEK2 and INSR and AURORA-A”.

Consider `COc1ccc(-c2nnc(SCc3nnc(-c4ccccc4)o3)n2C)cc1OC`, for which the “protein kinase against which the compound exhibits inhibitory activity (Table 3)” value was “GSK3-α; also recorded: CHEK2”.

For `Cc1nnc(SCc2ccccc2)n1CCc1ccccc1` [3-(benzylthio)-5-methyl-4-phenethyl-4H-1,2,4-triazole], the “protein kinase against which the compound exhibits inhibitory activity (Table 3)” value was “GSK3-β; also recorded: GSK3-α; also recorded: c-TAK1”.

As to `c1ccc(CSc2nnc(-c3ccncc3)n2-c2ccccc2)cc1` [4-(5-(benzylthio)-4-phenyl-4H-1,2,4-triazol-3-yl)pyridine], the “protein kinase against which the compound exhibits inhibitory activity (Table 3)” value is given as “AURORA-A”.

As to `CCn1c(COc2ccc(Br)cc2)nnc1SCCC(=O)O`, the “protein kinase against which the compound exhibits inhibitory activity (Table 3)” value is listed as “AURORA-A”.

On to `COc1ccc(-c2nnc(SCC(O)CO)[nH]2)cc1` (stereo not drawn) [3-(5-(4-methoxyphenyl)-4H-1,2,4-triazol-3-ylthio)propane-1,2-diol], for which the “protein kinase against which the compound exhibits inhibitory activity (Table 3)” value is reported as “AURORA-A; also recorded: FLT-3; also recorded: DYRK2”.

With `COCCCn1c(SCc2ccc(C(C)(C)C)cc2)nnc1-c1ccncc1`, the “protein kinase against which the compound exhibits inhibitory activity (Table 3)” value was “DYRK2”.

`Cc1cccc(-c2nnc(SCCN3CCOCC3)n2C)c1` [4-(2-(4-methyl-5-m-tolyl-4H-1,2,4-triazol-3-ylthio)ethyl)morpholine]: the “protein kinase against which the compound exhibits inhibitory activity (Table 3)” value is given as “AKT1”.

Take `Cc1ccc(S(=O)(=O)N(Cc2nnc(SCc3ccc(Cl)cc3Cl)n2-c2ccccc2)c2cccc(Cl)c2)cc1`: the “protein kinase against which the compound exhibits inhibitory activity (Table 3)” value is listed as “LCK”.

Take `Ic1cccc(CSc2nnc(-c3ccccc3)[nH]2)c1` [3-(3-iodobenzylthio)-5-phenyl-4H-1,2,4-triazole]: the “protein kinase against which the compound exhibits inhibitory activity (Table 3)” value is “AURORA-A; also recorded: c-TAK1”.

For `Cn1c(SCc2ccc(C(C)(C)C)cc2)nnc1-c1cccnc1` [3-(5-(4-tert-butylbenzylthio)-4-methyl-4H-1,2,4-triazol-3-yl)pyridine], the “protein kinase against which the compound exhibits inhibitory activity (Table 3)” value is listed as “PDGFRR-α”.
